Read-outs that look alike come from different tables or passages of the source.
Experiments:
[1] = Calcium available to human body (bioavailability) from Ca products; settings: consumption 1000 mg of product
From the text: Bioavailability of Calcium Lactate Gluconate: the effectiveness of the nutrient depends on its bioavailability, which means how well the human body absorbs and utilizes it for various functions occurring in the body. On an average, about 10 to 30% of the total calcium is only get absorbed from a mixed diet by healthy adults. Many different factors influence this level of availability, one being the type of salt providing calcium. […] Calcium Lactate Gluconate is primarily used in applications where solubility and clarity are important.

[2] = cited from earlier work; for % bioavailability of Ca out of inorganic Ca: consumption 1000 mg of product; for Bioavailability (in words): human and animal studies
[3] = cited from earlier work
Solubility in water = settings: RDA of calcium equals 800 mg per day in the EU
[4] = cited from earlier work; remark: listed apart in the source
women = settings: over 4,000 women, calcium in drinking water; cited from earlier work

In the case of CC(O)C(=O)[O-].O=C([O-])[C@H](O)[C@@H](O)[C@H](O)[C@H](O)CO.[Ca+2] [CLG, Calcium Lactate Gluconate], the “Total Ca absorbed by the body (mg)” value [1] is listed as “Max”, the “% bioavailability of Ca out of inorganic Ca” value (“% bioavailability” for short) [2] is listed as “High*” and the “Bioavailability (in words)” value [2] is listed as “highly bioavailable”. For the same molecule, the “Bioavailability (in words)” value ([2]; listed as Ca lactate gluconate) was “Excellent bioavailability. (maintains that solubility during transit through the small intestine, during which time it is exposed to passive diffusion sites, therefore maximizing Ca absorption)”, the “Solubility (in words)” value [3] was “High solubility (the most soluble forms of organic Ca)” and the “Solubility [g Ca/L water]” value ([3]; water) was 52 g Ca/L water. The “Solubility [g/L water]” value ([3]; water) was 400 g/L water, the “Solubility [g/L water]” value ([3]; water, listed as Calcium Lactate Gluconate) was “approx. 400 g/L water” and the “% of RDA in 100 ml” value (Solubility in water) was 650%.
For O=C([O-])[O-].[Ca+2] [Ca Carbonate, calcium carbonate], the “Total Ca absorbed by the body” value [1] is listed as 40 mg and the “% bioavailability” value [2] is listed as 10%.
In the case of O=C([O-])CC(O)(CC(=O)[O-])C(=O)[O-].O=C([O-])CC(O)(CC(=O)[O-])C(=O)[O-].[Ca+2].[Ca+2].[Ca+2] [Ca Citrate], the “% bioavailability” value [2] is listed as 50%.
In the case of [Ca+2] [Calcium], the “Validation: risk of toxicity (in words)” value ([4]; 60 mg per liter) is listed as “No risk of toxicity”, the “Safe Intake level” value ([4]; Source: Expert group of vitamins & Minerals, UK - 2003) is listed as 1500 mg and the “doses that might induce some gastrointestinal side effects in some individuals” value ([4]; human trials) is listed as “indicate that higher doses (of 2500 mg”. The “supplemental Ca with no adverse effect” value ([4]; in vivo) was 1500 mg per day, the “total calcium absorbed from a mixed diet” value ([2]; healthy adults, on an average) was 10 to 30% and the bone density (women) was “associated with an increase in their bone density”.
For [Cu] [Copper], the “Safe Intake level” value ([4]; in vivo) is listed as 10 mg and the safe upper limit ([4]; in vivo) is listed as “limit of 10 mg/day in a 60 kg adult”.
For [Ca+2] [Ionic Ca (Ca^++), Ionic Ca], the “% bioavailability” value [2] is listed as 100%.
In the case of CC(O)C(=O)[O-].CC(O)C(=O)[O-].[Ca+2] (stereo not shown) [calcium lactate], the “Total Ca absorbed by the body” value [1] is listed as 122 mg and the “% bioavailability” value [2] is listed as 33%.
For calcium phosphate [Ca Phosphate], the “Total Ca absorbed by the body” value [1] is listed as 39 mg and the “% bioavailability” value [2] is listed as 10%.

Reference: patent US20130273207A1, “Calcium Fortifying Composition for Strength, a Hydration Supplement, and Process for Preparing the Same” (priority 2010, published 2013)
